logP data for 21 compounds are collected here from the SangsterLogP compilation.

The structures appear in SMILES notation.

In the case of `O=C1CC(Oc2ccc(-c3ccccc3)cc2)N1` (stereo unspecified), the log partition coefficient (logP) (usually a log measure of how a compound divides between an organic and an aqueous phase) was 2.61.
In turn, `O=C1CC(Sc2ccccn2)N1` (stereo unspecified) displayed a log partition coefficient (logP) of 1.81.
The same measure for `CCOC(=O)CN1C(=O)CC1Oc1ccc(C(=O)c2ccccc2)cc1` (stereo unspecified): 3.
On to `O=C1C[C@@H](Sc2ccccc2)N1`, for which the logP is 1.91.
For `O=C1CC(Oc2ccccc2C(=O)c2ccccc2)N1` (stereo unspecified) the value was 1.83; for `CCOC(=O)CN1C(=O)CC1Oc1ccc(C(=O)C=Cc2ccccc2)cc1` (stereo unspecified), 3.3.
For `O=C1CC(Sc2ccc3ccccc3c2)N1` (stereo unspecified) the value was 2.64.
On to `CCOC(=O)CN1C(=O)CC1Oc1ccc2ccccc2c1` (stereo unspecified), for which the logP was 2.8. The logP values of the last two compounds are within 0.2 log units of each other.
The same measure for `O=C1CC(Sc2ccc(Cl)cc2)N1` (stereo unspecified): 2.31.
For `O=C1CC(Oc2cccc(C(=O)OCc3ccccc3)c2)N1` (stereo unspecified) the value was 2.83; for `CCOC(=O)CN1C(=O)CC1Sc1ccc2ccccc2c1` (stereo unspecified), 3.4.
The compound `O=C1CC(Oc2ccc(C(=O)CCc3ccccc3)cc2)N1` (stereo unspecified) yielded a logP of 2.48.
The same measure for `O=C1CC(Oc2ccc([N+](=O)[O-])cc2)N1` (stereo unspecified): 1.85; for `CC(C)(C)OC(=O)CN1C(=O)CC1Oc1ccc2ccccc2c1` (stereo unspecified): 3.6.
The same measure for `O=C1CC(Oc2c3ccccc3cc3ccccc23)N1` (stereo unspecified): 3.08.
`O=C1CC(Sc2ccccc2C(=O)OCc2ccccc2)N1` (stereo unspecified) yielded a logP of 2.62.
As to `O=C1CC(Oc2cccc3ccccc23)N1` (stereo unspecified), the logP was 2.66.
The same measure for `O=C1CC(Oc2ccc(C(=O)/C=C/c3ccccc3)cc2)N1` (stereo unspecified): 2.56.
The same measure for `O=C1CC(Oc2ccc3ccccc3c2)N1` (stereo unspecified): 2.29.
For `O=C1CC(Oc2ccccc2)N1` (stereo unspecified) the value was 1.94; for `O=C1CC(Oc2ccc(C(=O)c3ccccc3)cc2)N1` (stereo unspecified), 2.14.
